The record followed here is US12053447B2, “Oral solution and powder to liquid compositions of balsalazide” (NuBioPharma, LLC, priority 2019, dated 2024).

Residues, ends and D or L forms follow the SMILES beside them.

The nature of series [1]: Stability of sweetener aspartame in solution. In kind it is physicochemical. As to conditions: pH 7.0 and above.
Series [2] is described as follows: Storage stability of liquid balsalazide solution (HPLC assay, settling). In kind it is physicochemical. As for the experimental part: The storage stability of two balsalazide disodium solutions, 750 mg/5 ml, with the formulations described in TABLE 6 and TABLE 7 with pH of 4.8 and pH 7.2, respectively were subjected to accelerated stability testing at 40° C. and at room temperature (25° C.). Balsalazide solutions stored in amber PVC bottles (30 ml volume) were tested over a 90-day storage period. The amount of balsalazide and its known impurities were determined by a validated high pressure liquid chromatography (HPLC) assay after 0 day (initial), 45 days, and 90 days and results are shown in TABLE 6 below. Five minor impurities (less than 0.1% each) were identified in balsalazide solution initially on day 0.

As to `COC(=O)[C@H](Cc1ccccc1)NC(=O)[C@@H](N)CC(=O)O` [aspartame] (H-Asp-Phe-OMe), in series [1], the stability in solution entry is recorded as “unstable”. Take `O=C(O)CCNC(=O)c1ccc(/N=N/c2ccc(O)c(C(=O)O)c2)cc1` [balsalazide]: the “stability of oral solution” value in series [2] (acidic conditions of pH below 7.0) was “unstable”; in series [2] (pH of 7.0 or higher), “stable”.
